Results published in patent US20240207650A1, “ULTRASOUND-INDUCED MICROBUBBLE DRUG DELIVERY SYSTEM LOADING STABILIZED HYDROPHOBIC DRUG WITH POLYETHYLENE GLYCOL BASED NONIONIC SURFACTANT AND METHOD OF MANUFACTURING THE SAME” (SAHMYOOK UNIVERSITY INDUSTRY-ACADEMIC COOPERATION FOUNDATION, priority 2022, published 2024).

System: U87MG cells
Assay: Cytotoxic experiment, cell viability with tetrazolium salt derivatives
Assay type: cell-based
Conditions: 72 hours, free drug 0.01-100 μM, FIG. 5
Experimental: An experiment is performed to identify cytotoxicity of the manufactured microbubble drug delivery system and the drug delivery system loading the drugs. The experiment is performed after an experimental group manufactured by using the method in Example 1-2 (microbubble drug delivery system loading paclitaxel PTX@MB) and a control group (microbubble without loaded drugs MB) are deaerated to burst bubbles. Each solution is added to U87MG cells to respectively set final concentrations to 10%, 1%, 0.1%, 0.01%, and 0.001% and final concentrations of free paclitaxel are respectively set to 100 μM, 10 μM, 1 μM, 0.1 μM, and 0.01 μM. 5000 cells are grown in each well and cells are cultured for 72 hours. Then, a solution containing a cell culture fluid and tetrazolium salt derivatives are added to measure cell viability and in-vitro cytotoxicity of each material is identified.

## CC(=O)O[C@H]1C(=O)[C@@]2(C)[C@H]([C@H](OC(=O)c3ccccc3)[C@]3(O)C[C@H](OC(=O)[C@H](O)[C@@H](NC(=O)c4ccccc4)c4ccccc4)C(C)=C1C3(C)C)[C@]1(OC(C)=O)CO[C@@H]1C[C@@H]2O [free paclitaxel, Paclitaxel]
  concentration at which cytotoxicity is identified: above 1 μM
